Measurements as given in patent US20120115724A1, “METHOD OF CONTROLLING UNDESIRED VEGETATION” (SYNGENTA CROP PROTECTION LLC, priority 2009, published 2012).

Columns and labels:
Assay type in all cases: in vivo
[1] = test system: XANST Xanthium strumarium; assay: Post-emergence crop and weed test (Example 15); details: 360 h, after 15 days, read-out: Percentage damage XANST
Description: (§1) Seeds of crop and representative weed species were sown in standard soil in pots. After cultivation for 14 days under controlled conditions in a glasshouse (at 22/16° C., day/night; 16 hours light; 65% humidity), the plants were sprayed. The spray solution was prepared by dissolving the technical active ingredient in acetone containing 10.56 wt % Emulsogen EL, 42.22 wt % N-methylpyrrolidone and 2.22 wt % DPG-monoethyl ether to give a 5% stock solution. This was then diluted with water containing 0.2% (v/v) of the adjuvant X-77 to give the desired treatment concentration.
(§2) The test plants were then grown on under controlled conditions in a glasshouse (at 22/16° C., day/night; 16 hours light; 65% humidity) and watered twice daily. After 15 days the test was evaluated (100 =total damage to plant; 0 =no damage to plant).

SIDSP Sida spinosa = assay: Post-emergence crop and weed test (Example 15); details: 360 h, after 15 days, read-out: Percentage damage SIDSP
Description: as §1, §2

SINAR Sinapis arvensis = assay: Post-emergence crop and weed test (Example 15); details: Mutarda arvensis, 360 h, after 15 days, read-out: Percentage damage SINAR
Description: as §1, §2

CHEAL Chenopodium album = assay: Post-emergence crop and weed test (Example 15); details: 360 h, after 15 days, read-out: Percentage damage CHEAL
Description: as §1, §2

[2] = test system: ABUTH Abutilon theophrasti; assay: Post-emergence crop and weed test (Example 15); details: 360 h, after 15 days, read-out: Percentage damage ABUTH
Description: as §1, §2

[3] = test system: POLCO Polygonum convolvulus; assay: Post-emergence crop and weed test (Example 15); details: Fallopia convolvulus, 360 h, after 15 days, read-out: Percentage damage POLCO
Description: as §1, §2

[4] = test system: EPHHL Euphorbia heterophylla; assay: Post-emergence crop and weed test (Example 15); details: 360 h, after 15 days, read-out: Percentage damage EPHHL
Description: as §1, §2

GLXMA Soybean = assay: Post-emergence crop and weed test (Example 15); details: Glycine max, 360 h, after 15 days, read-out: Percentage damage GLXMA
Description: as §1, §2

IPOHE Ipomoea hederacea = assay: Post-emergence crop and weed test (Example 15); details: 360 h, after 15 days, read-out: Percentage damage IPOHE
Description: as §1, §2

KCHSC Kochia scoparia = assay: Post-emergence crop and weed test (Example 15); details: Bassia scoparia, 360 h, after 15 days, read-out: Percentage damage KCHSC
Description: as §1, §2

VERPE Veronica persica = assay: Post-emergence crop and weed test (Example 15); details: 360 h, after 15 days, read-out: Percentage damage VERPE
Description: as §1, §2

[5] = test system: AMARE Amaranthus retroflexus; assay: Post-emergence crop and weed test (Example 15); details: 360 h, after 15 days, read-out: Percentage damage AMARE
Description: as §1, §2

Solanum nigrum (SOLNI) [6] = assay: Pre-emergence biological efficacy (Example 13); details: Solanum nigrum, 312 h; pre-emergence, 1,000 g/ha, after 13 days; read-out: Percentage damage SOLNI
Description: (§3) Seeds of Alopecurus myosuroides (ALOMY), Setaria faberi (SETFA), Echinochloa crus-galli (ECHCG), Solanum nigrum (SOLNI), Amaranthus retroflexus (AMARE) and Ipomea hederaceae (IPOHE) were sown in standard soil in pots. After cultivation for one day under controlled conditions in a glasshouse (at 24/16° C., day/night; 14 hours light; 65% humidity), the plants were sprayed with an aqueous spray solution derived from the formulation of the technical active ingredient in acetone/water (50:50) solution containing 0.5% Tween 20 (polyoxyethylene sorbitan monolaurate, CAS RN 9005-64-5) to give a final dose of 250 or 1000g/ha of test compound. The test plants were then grown under controlled conditions in the glasshouse (at 24/16° C., day/night; 14 hours light; 65% humidity) and watered twice daily. After 13 days the test was evaluated (100 =total damage to plant; 0 =no damage to plant).

[7] = test system: Ipomea hederaceae (IPOHE); assay: Pre-emergence biological efficacy (Example 13); details: Ipomoea hederacea, 312 h; pre-emergence, 1,000 g/ha, after 13 days; read-out: Percentage damage IPOHE
Description: as §3

[8] = test system: Amaranthus retroflexus (AMARE); assay: Pre-emergence biological efficacy (Example 13); details: Amaranthus retroflexus, 312 h; pre-emergence, 1,000 g/ha, after 13 days; read-out: Percentage damage AMARE
Description: as §3

[9] = test system: Echinochloa crus-galli (ECHCG); assay: Pre-emergence biological efficacy (Example 13); details: Echinochloa crus-galli, 312 h; pre-emergence, 1,000 g/ha, after 13 days; read-out: Percentage damage ECHCG
Description: as §3

[10] = test system: Alopecurus myosuroides (ALOMY); assay: Pre-emergence biological efficacy (Example 13); details: Alopecurus myosuroides, 312 h; pre-emergence, 1,000 g/ha, after 13 days; read-out: Percentage damage ALOMY
Description: as §3

Setaria faberi (SETFA) [11] = assay: Pre-emergence biological efficacy (Example 13); details: Setaria faberi, 312 h; pre-emergence, 1,000 g/ha, after 13 days; read-out: Percentage damage SETFA
Description: as §3

Solanum nigrum (SOLNI) [12] = assay: Post-emergence biological efficacy (Example 14); details: Solanum nigrum, 312 h; post-emergence, 1,000 g/ha, after 13 days; read-out: Percentage damage SOLNI
Description: as §3, with “for 8 days” for “for one day”, “or 1000 g/ha” for “or 1000g/ha”, “grown on” for “grown”, “in a” for “in the”, “evaluated (100=total” for “evaluated (100 =total”, “plant; 0=no” for “plant; 0 =no”

[13] = test system: Ipomea hederaceae (IPOHE); assay: Post-emergence biological efficacy (Example 14); details: Ipomoea hederacea, 312 h; post-emergence, 1,000 g/ha, after 13 days; read-out: Percentage damage IPOHE
Description: as §3, with “for 8 days” for “for one day”, “or 1000 g/ha” for “or 1000g/ha”, “grown on” for “grown”, “in a” for “in the”, “evaluated (100=total” for “evaluated (100 =total”, “plant; 0=no” for “plant; 0 =no”

[14] = test system: Amaranthus retroflexus (AMARE); assay: Post-emergence biological efficacy (Example 14); details: Amaranthus retroflexus, 312 h; post-emergence, 1,000 g/ha, after 13 days; read-out: Percentage damage AMARE
Description: as §3, with “for 8 days” for “for one day”, “or 1000 g/ha” for “or 1000g/ha”, “grown on” for “grown”, “in a” for “in the”, “evaluated (100=total” for “evaluated (100 =total”, “plant; 0=no” for “plant; 0 =no”

[15] = test system: Echinochloa crus-galli (ECHCG); assay: Post-emergence biological efficacy (Example 14); details: Echinochloa crus-galli, 312 h; post-emergence, 1,000 g/ha, after 13 days; read-out: Percentage damage ECHCG
Description: as §3, with “for 8 days” for “for one day”, “or 1000 g/ha” for “or 1000g/ha”, “grown on” for “grown”, “in a” for “in the”, “evaluated (100=total” for “evaluated (100 =total”, “plant; 0=no” for “plant; 0 =no”

[16] = test system: Alopecurus myosuroides (ALOMY); assay: Post-emergence biological efficacy (Example 14); details: Alopecurus myosuroides, 312 h; post-emergence, 1,000 g/ha, after 13 days; read-out: Percentage damage ALOMY
Description: as §3, with “for 8 days” for “for one day”, “or 1000 g/ha” for “or 1000g/ha”, “grown on” for “grown”, “in a” for “in the”, “evaluated (100=total” for “evaluated (100 =total”, “plant; 0=no” for “plant; 0 =no”

Setaria faberi (SETFA) [17] = assay: Post-emergence biological efficacy (Example 14); details: Setaria faberi, 312 h; post-emergence, 1,000 g/ha, after 13 days; read-out: Percentage damage SETFA
Description: as §3, with “for 8 days” for “for one day”, “or 1000 g/ha” for “or 1000g/ha”, “grown on” for “grown”, “in a” for “in the”, “evaluated (100=total” for “evaluated (100 =total”, “plant; 0=no” for “plant; 0 =no”

With `C=Cc1c(N)nc(-c2ccc(Cl)c(F)c2)nc1C(=O)OC` [Compound 9, 4-Amino-2-(4-chloro-3-fluorophenyl)-5-ethenyl-6-methoxycarbonyl-pyrimidine] the pest or weed control at 125 g/ha ([1]; 125 g/ha) was 100%, the pest or weed control at 125 g/ha (SIDSP Sida spinosa; 125 g/ha) was 80% and the pest or weed control at 125 g/ha (SINAR Sinapis arvensis; 125 g/ha) was 80%. For the same molecule, the pest or weed control at 125 g/ha (CHEAL Chenopodium album; 125 g/ha) was 90%, the pest or weed control at 125 g/ha ([2]; 125 g/ha) was 80% and the pest or weed control at 125 g/ha ([3]; 125 g/ha) was 70%. The pest or weed control at 125 g/ha ([4]; 125 g/ha) was 80%, the plant injury at 125 g/ha (GLXMA Soybean; 125 g/ha) was 0% and the pest or weed control at 125 g/ha (IPOHE Ipomoea hederacea; 125 g/ha) was 80%. For the same molecule, the pest or weed control at 125 g/ha (KCHSC Kochia scoparia; 125 g/ha) was 90%, the pest or weed control at 125 g/ha (VERPE Veronica persica; 125 g/ha) was 80% and the pest or weed control at 125 g/ha ([5]; 125 g/ha) was 100%.
`C=Cc1c(N)nc(-c2ccc(Cl)cc2F)nc1C(=O)OC` [Compound 10, 4-Amino-2-(4-chloro-2-fluorophenyl)-5-ethenyl-6-methoxycarbonyl-pyrimidine] was tested, and the pest or weed control at 15 g/ha ([1]; 15 g/ha) was 70%, the pest or weed control at 15 g/ha (SIDSP Sida spinosa; 15 g/ha) was 50% and the pest or weed control at 15 g/ha (SINAR Sinapis arvensis; 15 g/ha) was 80%. The pest or weed control at 15 g/ha (CHEAL Chenopodium album; 15 g/ha) was 80%, the pest or weed control at 15 g/ha ([2]; 15 g/ha) was 90% and the pest or weed control at 15 g/ha ([3]; 15 g/ha) was 70%. It also gave a pest or weed control at 15 g/ha ([4]; 15 g/ha) of 50%, a plant injury at 15 g/ha (GLXMA Soybean; 15 g/ha) of 0% and a pest or weed control at 15 g/ha (IPOHE Ipomoea hederacea; 15 g/ha) of 70%. For the same molecule, the pest or weed control at 15 g/ha (KCHSC Kochia scoparia; 15 g/ha) was 30%, the pest or weed control at 15 g/ha (VERPE Veronica persica; 15 g/ha) was 10% and the pest or weed control at 15 g/ha ([5]; 15 g/ha) was 50%.
`C=Cc1c(NCc2ccccc2[N+](=O)[O-])nc(-c2ccc(Cl)c(OC)c2F)nc1C(=O)OC` [Compound 15, 2-(4-Chloro-2-fluoro-3-methoxyphenyl)-5-ethenyl-6-methoxycarbonyl-4-(2-nitrophenylmethyl-amino)-pyrimidine] was tested, and the pest or weed control at 1000 g/ha (Solanum nigrum (SOLNI) [6]) was 100%, the pest or weed control at 1000 g/ha [7] was 100% and the pest or weed control at 1000 g/ha [8] was 100%. It also gave a pest or weed control at 1000 g/ha [9] of 70%, a pest or weed control at 1000 g/ha [10] of 50% and a pest or weed control at 1000 g/ha (Setaria faberi (SETFA) [11]) of 0%. The pest or weed control at 1000 g/ha (Solanum nigrum (SOLNI) [12]) was 90%, the pest or weed control at 1000 g/ha [13] was 90% and the pest or weed control at 1000 g/ha [14] was 100%. The pest or weed control at 1000 g/ha [15] was 90%, the pest or weed control at 1000 g/ha [16] was 70% and the pest or weed control at 1000 g/ha (Setaria faberi (SETFA) [17]) was 70%.
With `C=Cc1c(N)nc(C2CC2)nc1C(=O)OC` [Ref. Ex. C, 4-Amino-2-cyclopropyl-5-ethenyl-6-methoxycarbonyl-pyrimidine, reference compound] the pest or weed control at 8 g/ha ([1]; 8 g/ha) was 0%, the pest or weed control at 8 g/ha (SIDSP Sida spinosa; 8 g/ha) was 40% and the pest or weed control at 8 g/ha (SINAR Sinapis arvensis; 8 g/ha) was 0%. It also gave a pest or weed control at 8 g/ha (CHEAL Chenopodium album; 8 g/ha) of 60%, a pest or weed control at 8 g/ha ([2]; 8 g/ha) of 30% and a pest or weed control at 8 g/ha ([3]; 8 g/ha) of 0%. For the same molecule, the pest or weed control at 8 g/ha ([4]; 8 g/ha) was 30%, the plant injury at 8 g/ha (GLXMA Soybean; 8 g/ha) was 70% and the pest or weed control at 8 g/ha (IPOHE Ipomoea hederacea; 8 g/ha) was 70%. For the same molecule, the pest or weed control at 8 g/ha (KCHSC Kochia scoparia; 8 g/ha) was 0%, the pest or weed control at 8 g/ha (VERPE Veronica persica; 8 g/ha) was 50% and the pest or weed control at 8 g/ha ([5]; 8 g/ha) was 10%.
